Tested on: iHeps
Assay: CYP450 activities of treated iHeps through isoenzyme-specific probes
Format: cell-based, human
Experimental: Culture media were collected and frozen at −20° C. until analysis. Albumin content was measured through sandwich ELISA assays (MP Biomedicals, Fitzgerald, Bethyl Laboratories) using horseradish peroxidase detection and 3,3′,5,5′-tetramethylbenzidine (TMB, Fitzgerald Industries) as a substrate. Urea concentration was determined colorimetrically using diacetylmonoxime with acid and heat (Stanbio Labs). To quantify CYP450 activity, at 48 hours after small molecule exposure, cultures were incubated with substrates (coumarin from Sigma for CYP2A6, luciferin-IPA from Promega for CYP3A4) for 4 hours at 37° C. Incubation medium was collected and metabolite concentration quantified via luminescence, or fluorescence after hydrolization of potential metabolite conjugates by β-glucuronidase/arylsulfatase (Roche, Ind.).
The ability of compounds of the invention to affect the differentiation and maturation of iHeps was tested. Undifferentiated iPS cells were cultured on Matrigel, supported by primary mouse embryonic fibroblasts. […]
To confirm the staining results, secreted levels of albumin and AFP via ELISA, and CYP450 activities through isoenzyme-specific probes that are either fluorescent or luminescent were measured. […]

Cc1ccc(Cl)cc1N(CC(=O)Nc1c(F)cccc1F)S(C)(=O)=O [FPH2, 2-(N-(5-chloro-2-methylphenyl)methylsulfonamido)-N-(2,6-difluorophenyl)acetamide]
CYP3A4 activity increase: 45 times

Source: patent US10081609B2, “Compounds for inducing proliferation and differentiation of cells, and methods of use thereof” (The Broad Institute, Inc., priority 2013, dated 2018)
